Key:
Format in all cases: binding
HLA B*0801 = HLA B*0801 (Homo sapiens, UniProt P01889, A93T/A95T/D138N/E176V/E187T/K202T/Q94N/R180D/S35A/V36M/Y33D/Y91F); test: biochemical
HLA A*3201 = HLA A*3201 (Homo sapiens, UniProt P04439, A270S/D101S/D185E/E176V/E277Q/F133L/G103R/G107R/G231S/H175R/I121M/I218V/I322F/K168Q/L105A/L300P/L318F/M331R/P208A/P217A/Q94H/R106L/R138Q/S129P/T104I/T323A/T345S/V100E/V321M/V358M); test: biochemical
HLA B*5101 = HLA B*5101 (Homo sapiens, UniProt P01889, A329T/A93T/A95T/C349S/D138N/D201E/D98Y/E187L/E204Q/E69T/G107R/I218V/K202T/L105A/L119W/N104I/Q94N/R106L/R155S/R180L/S101N/S121T/S35A/S48A/V306I/V36M/Y195H/Y91F)
HLA B*3501 = HLA B*3501 (Homo sapiens, UniProt P01889, A329T/A93T/A95T/C349S/D201E/D98Y/E176V/E187L/E204Q/E69T/I218V/K202T/L119I/Q94N/R155S/R180L/S121R/S35A/S48A/T118I/V127L/V306I/V36M/Y140S/Y91F)
HLA B*1501 = HLA B*1501 (Homo sapiens, UniProt P01889, A329T/A93T/A95T/C349S/D201E/D98Y/E187L/E204Q/E69M/E70A/K202T/N87E/Q94N/R155S/R180W/S121R/S35A/S48A/V306I/V36M/Y140S/Y91S); test: biochemical
HLA B*5802 = HLA B*5802 (Homo sapiens, UniProt P01889, A329T/C349S/D201E/D98Y/E176V/E187L/E204Q/E69T/G107R/I218V/I90N/K202T/L105A/N104I/N87E/Q89R/Q94S/R106L/R155S/R180L/R86G/S101N/S121W/S35A/S48A/V127L/V306I/V36M/Y140S/Y91M)
HLA B*5801 = HLA B*5801 (Homo sapiens, UniProt P01889, A329T/C349S/D201E/D98Y/E176V/E187L/E204Q/E69T/G107R/I218V/I90N/K202T/L105A/L119I/N104I/N87E/Q89R/Q94S/R106L/R155S/R180L/R86G/S101N/S121R/S35A/S48A/T118I/V127L/V306I/V36M/Y140S/Y91M)
H-2 K^d = H-2 K^d (Mus musculus, UniProt P01902)
Chain of H-2 K^d (P01887 21-119): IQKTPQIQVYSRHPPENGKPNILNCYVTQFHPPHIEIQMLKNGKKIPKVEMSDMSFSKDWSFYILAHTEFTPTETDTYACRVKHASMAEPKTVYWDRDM
Chain of H-2 K^d (P01902 22-368): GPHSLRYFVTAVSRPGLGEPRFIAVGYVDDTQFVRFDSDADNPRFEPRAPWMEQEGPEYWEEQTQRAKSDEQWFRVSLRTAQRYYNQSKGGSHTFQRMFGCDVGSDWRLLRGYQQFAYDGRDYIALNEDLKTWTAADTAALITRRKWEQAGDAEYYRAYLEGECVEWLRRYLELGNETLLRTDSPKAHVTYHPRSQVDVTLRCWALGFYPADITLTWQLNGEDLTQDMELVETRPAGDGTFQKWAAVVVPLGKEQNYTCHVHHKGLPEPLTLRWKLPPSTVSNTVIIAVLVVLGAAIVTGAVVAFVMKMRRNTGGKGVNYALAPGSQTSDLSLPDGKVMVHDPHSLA

HLA A*6802 = HLA A*6802 (Homo sapiens, UniProt P04439, A269V/D140Y/D185E/E176V/E277Q/E87N/F33Y/G231S/I121R/I166T/I218V/L180W/L300P/L318F/N151K/P208A/P217A/Q86R/R138H/R169H/S129P/T345S/V36M)
H-2 K^k = H-2 K^k (Mus musculus, UniProt P04223)
Chain of H-2 K^k (P01887 21-119): as the sequence (P01887 21-119) above
Chain of H-2 K^k (P04223 22-369): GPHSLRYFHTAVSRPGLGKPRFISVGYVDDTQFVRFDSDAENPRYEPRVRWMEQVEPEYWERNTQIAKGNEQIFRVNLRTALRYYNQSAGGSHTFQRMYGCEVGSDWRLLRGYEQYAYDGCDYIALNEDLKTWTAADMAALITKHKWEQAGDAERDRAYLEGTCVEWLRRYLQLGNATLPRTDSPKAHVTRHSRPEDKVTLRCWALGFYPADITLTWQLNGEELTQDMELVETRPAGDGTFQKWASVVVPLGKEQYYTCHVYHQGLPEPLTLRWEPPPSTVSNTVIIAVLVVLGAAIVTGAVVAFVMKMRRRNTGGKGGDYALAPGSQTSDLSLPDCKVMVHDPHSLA

HLA B*5401 = HLA B*5401 (Homo sapiens, UniProt P01889, A329T/C349S/D138N/D201E/E176V/E187T/E204Q/E69G/I76V/K202T/L119W/R155S/R180L/S121T/S35A/S48A/V127L/V306I/V36M/Y140L)
HLA A*3001 = HLA A*3001 (Homo sapiens, UniProt P04439, D140H/D185E/E176W/F33S/G80R/H175R/K168Q/R138E/R41S); test: biochemical
HLA B*1503 = HLA B*1503 (Homo sapiens, UniProt P01889, A329T/A93T/A95T/C349S/D201E/D98Y/E187L/E204Q/K202T/N87E/Q94N/R155S/R180L/S121R/S35A/V306I/V36M/Y140S/Y91S); test: biochemical
HLA B*5301 = HLA B*5301 (Homo sapiens, UniProt P01889, A329T/A93T/A95T/C349S/D201E/D98Y/E176V/E187L/E204Q/E69T/G107R/I218V/K202T/L105A/L119I/N104I/Q94N/R106L/R155S/R180L/S101N/S121R/S35A/S48A/T118I/V127L/V306I/V36M/Y140S/Y91F)
H-2 D^d = H-2 D^d (Mus musculus, UniProt P01900)
Chain of H-2 D^d (P01900 whole entry, looked up): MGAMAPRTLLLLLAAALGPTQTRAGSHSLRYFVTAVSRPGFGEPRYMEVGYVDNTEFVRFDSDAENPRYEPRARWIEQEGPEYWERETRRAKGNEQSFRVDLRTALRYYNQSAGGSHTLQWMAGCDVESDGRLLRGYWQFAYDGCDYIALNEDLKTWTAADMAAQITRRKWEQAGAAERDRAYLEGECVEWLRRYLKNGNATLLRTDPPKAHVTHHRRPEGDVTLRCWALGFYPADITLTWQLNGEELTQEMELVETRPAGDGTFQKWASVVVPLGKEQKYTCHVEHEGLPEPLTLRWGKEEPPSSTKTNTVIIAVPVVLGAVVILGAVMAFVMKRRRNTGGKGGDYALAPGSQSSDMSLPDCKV

H-2 D^b = H-2 D^b (Mus musculus, UniProt P01899)
Chain of H-2 D^b (P01887 21-119): as the sequence (P01887 21-119) above
Chain of H-2 D^b (P01899 25-362): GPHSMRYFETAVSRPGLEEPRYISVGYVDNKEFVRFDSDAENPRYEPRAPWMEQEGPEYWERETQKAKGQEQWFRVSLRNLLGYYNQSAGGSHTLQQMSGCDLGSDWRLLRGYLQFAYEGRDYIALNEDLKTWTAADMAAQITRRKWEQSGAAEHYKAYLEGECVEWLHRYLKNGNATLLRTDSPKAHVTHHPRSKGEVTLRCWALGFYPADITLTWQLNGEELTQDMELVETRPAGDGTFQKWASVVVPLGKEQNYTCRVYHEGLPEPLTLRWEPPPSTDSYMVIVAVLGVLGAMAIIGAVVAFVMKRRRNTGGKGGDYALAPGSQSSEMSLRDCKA

Sequence	Normalized average relative binding affinity(ARB) (HLA B*0801)	Normalized average relative binding affinity(ARB) (HLA A*3201)	Normalized average relative binding affinity(ARB) (HLA B*5101)	Normalized average relative binding affinity(ARB) (HLA B*3501)	Normalized average relative binding affinity(ARB) (HLA B*1501)	Normalized average relative binding affinity(ARB) (HLA B*5802)	Normalized average relative binding affinity(ARB) (HLA B*5801)	Normalized average relative binding affinity(ARB) (H-2 K^d)	Normalized average relative binding affinity(ARB) (HLA A*6802)	Normalized average relative binding affinity(ARB) (H-2 K^k)	Normalized average relative binding affinity(ARB) (HLA B*5401)	Normalized average relative binding affinity(ARB) (HLA A*3001)	Normalized average relative binding affinity(ARB) (HLA B*1503)	Normalized average relative binding affinity(ARB) (HLA B*5301)	Normalized average relative binding affinity(ARB) (H-2 D^d)	Normalized average relative binding affinity(ARB) (H-2 D^b)
XXXEXXXXX [3064.0064]	0.24	0.36	0.46	0.087	0.27	0.18	0.21	0.18	0.14	0.41	0.15	0.34	0.25	0.24	0.38	0.35
XXXFXXXXX [3064.0065]	0.55	1.0	0.64	0.10	0.42	0.45	0.31	0.098	0.74	0.38	0.31	1.0	0.41	0.21	0.96	0.38
XXXGXXXXX [3064.0066]	0.063	0.33	0.47	0.17	0.23	0.15	0.21	0.14	0.26	0.19	0.062	0.50	0.19	0.18	0.17	0.088
XXXHXXXXX [3064.0067]	0.26	0.32	0.18	0.16	0.19	0.32	0.40	0.22	0.30	0.13	0.21	0.45	0.29	0.089	0.53	0.29
XXXIXXXXX [3064.0068]	0.38	0.15	1.0	1.0	0.27	0.33	0.23	0.22	0.088	0.39	0.16	0.34	0.26	0.18	0.79	0.87
XXXKXXXXX [3064.0069]	0.52	0.39	0.90	0.097	0.43	0.55	0.44	0.23	0.095	0.26	0.42	0.32	0.30	0.12	0.39	0.43
XXXLXXXXX [3064.0070]	0.61	0.098	0.69	0.10	0.56	0.50	0.42	0.17	0.14	0.96	0.74	0.52	0.46	0.17	0.52	0.96
XXXMXXXXX [3064.0071]	1.0	0.58	0.46	0.27	0.56	0.44	0.54	0.22	0.55	0.42	0.13	0.38	1.0	0.46	0.49	0.65
